Data on 14 molecules can be found in US20090118318A1, “Novel Diazaspiroalkanes and Their Use for Treatment of CCR8 Mediated Diseases” (priority 2005, published 2009).

Structures are written as SMILES. pIC50: −log10 of the molar value. Where only a bound is given, the exact number is not on record here.

For data set [1], the target named is T1, human recombinant chemokine CCR8 receptor (Homo sapiens, UniProt P51685).
T1 construct: purchased Euroscreen ES-136-M; host or cells: CHO-K1 cells (transfected), membrane preparation
As to the kind of experiment: CCL1 SPA Binding Assay. As to conditions: inhibition of 125I CCL1 binding to CCR8 membranes from transfected CHO-K1 cells. How it is done:
Membranes from CHO-K1 cells transfected with human recombinant chemokine CCR8 receptor (ES-136-M) were purchased from Euroscreen. Membrane preparations are stored at −70C in 7.5 mM Tris-Cl pH 7.5, 12.5 mM MgCl2, 0.3 mM EDTA, 1 mM EGTA, 250 mM sucrose until used.
The CCR8 membranes ([…]) were preincubated with Wheat Germ Agglutinin SPA beads (4.05 mg/ml) in assay buffer (50 mM HEPES, 1 mM CaCl2x2H2O, 5 mM MgCl2x6H2O, 75 mM NaCl, 0.1% BSA) at pH=7.4 for 2 hours on ice. A […] dose-response curve (final concentrations 50 μM, 16.7 μM, 5.6 μM, 1.9 μM, 0.62 μM, 0.21 μM, 0.069 μM, 0.023 μM) was prepared by diluting compounds by serial dilution 1:3 in DMSO. In the screening plate (Polystyrene NBS plates, Costar Corning 3604) 1 μl from the DMSO solutions of compounds was transferred into each well. 1 μl of DMSO was added to the blank control wells and 1 μl unlabeled CCL1 ([…]) was added to background control wells. 50 μl of the SPA bead-membrane mixture was added into each well. Finally, 50 μl ([…]) ^125I CCL1 (2000 Ci/mM) was added to each well. Plates were then incubated at RT with shaking (700 rpm) for 90 minutes followed by 30 minutes at RT without shaking. The plate was read in a Wallac MicroBeta counter for 2 minutes/well.

Data set [2] in a line: Human Microsomal Stability Assay. As to conditions: human microsomes (Xenotech); human microsomes 1 mg protein/mL, compound 2.5 μM, NADPH 2 mM, pH 7.4, 37° C.; read-out: Intrinsic clearance. It is filed as in vitro ADME. The procedure:
Human Microsomal Stability Assay
Samples at four time-points (0, 5, 15 and 30 minutes) are withdrawn and the enzymatic reaction is terminated by protein precipitation with 1% acetic acid in acetonitrile. The incubations are performed on a thermostated plate (37° C.) placed on a Tecan worktable, and all liquid handling was performed robotically. After centrifugation of the samples, the supernatants are pooled in sets of four before they are analysed by liquid chromatography with tandem mass spectrometry detection (LC/MS/MS) using multiple reaction monitoring (MRM). Data are presented as intrinsic Clearance (CLint), μl/min/mg protein, calculated from the initial linear part of the compound disappearance curve.

T1 sequence (P51685 whole entry): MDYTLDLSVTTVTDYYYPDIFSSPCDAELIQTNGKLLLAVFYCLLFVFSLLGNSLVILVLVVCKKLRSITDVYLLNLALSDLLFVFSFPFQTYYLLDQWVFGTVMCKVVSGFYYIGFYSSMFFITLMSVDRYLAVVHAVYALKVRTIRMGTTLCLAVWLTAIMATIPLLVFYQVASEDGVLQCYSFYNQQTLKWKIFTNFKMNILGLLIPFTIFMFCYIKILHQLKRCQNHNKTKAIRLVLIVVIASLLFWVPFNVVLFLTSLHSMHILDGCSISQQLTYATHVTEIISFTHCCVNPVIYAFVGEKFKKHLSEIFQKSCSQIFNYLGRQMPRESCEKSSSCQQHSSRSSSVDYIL

On to `COc1ccccc1Oc1cccc(CN2CCC3(CC2)CCN(C(=O)c2ccccc2CC(=O)O)CC3)c1` [Example 8, [2-({9-[3-(2-methoxyphenoxy)benzyl]-3,9-diazaspiro[5.5]undec-3-yl}carbonyl)phenyl]acetic Acid], for which, in data set [1], the pIC50 – broadly, the negative decadic logarithm of the IC50, by convention in mol/L – is 7.38. Further, in data set [2], the microsomal CLint at 2.5 μM is below 10 µL/min/mg.
Turning to `COc1ccccc1Oc1cccc(CN2CCC3(CC2)CCN(C(=O)c2ccc(OCC(=O)O)cc2)CC3)c1` [Example 10, [4-({9-[3-(2-methoxyphenoxy)benzyl]-3,9-diazaspiro[5.5]undec-3-yl}carbonyl)phenoxy]acetic Acid], in data set [1], the pIC50 is 6.39. The microsomal CLint at 2.5 μM in data set [2] is below 10 µL/min/mg.
In the case of `COc1ccccc1Oc1cccc(CN2CCC3(CC2)CCN(C(=O)c2ccccc2OCC(=O)O)CC3)c1` [Example 11, [2-({9-[3-(2-methoxyphenoxy)benzyl]-3,9-diazaspiro[5.5]undec-3-yl}carbonyl)phenoxy]acetic Acid], the pIC50 in data set [1] was 6.28. Further, the microsomal CLint at 2.5 μM in data set [2] is below 10 µL/min/mg.
As for `CC(C)COc1ccccc1CN1CCC2(CC1)CCN(C(=O)c1ccccc1C(=O)O)CC2` [B, 2-{[9-(2-isobutoxybenzyl)-3,9-diazaspiro[5.5]undec-3-yl]carbonyl}benzoic Acid, reference compound], the pIC50 in data set [1] is 5.86.
For `O=C(O)Cc1ccccc1C(=O)N1CCC2(CCN(Cc3ccccc3Oc3ccccc3)CC2)CC1` [Example 1, (2-{[9-(2-phenoxybenzyl)-3,9-diazaspiro[5.5]undec-3-yl]carbonyl}phenyl)acetic Acid], in data set [1], the pIC50 is 6.19. In data set [2], the microsomal CLint at 2.5 μM is below 10 µL/min/mg.
In the case of `COc1ccccc1Oc1ccccc1CN1CCC2(CC1)CCN(C(=O)c1ccccc1NC(=O)C(=O)O)CC2` [Example 7, {[2-({9-[2-(2-methoxyphenoxy)benzyl]-3,9-diazaspiro[5.5]undec-3-yl}carbonyl)phenyl]amino}(oxo)acetic Acid], the pIC50 in data set [1] is 7.00. The microsomal CLint at 2.5 μM in data set [2] was below 10 µL/min/mg.
Take `COc1ccccc1Oc1cccc(CN2CCC3(CC2)CCN(C(=O)c2ccc(Cl)cc2)CC3)c1` [Y, 3-(4-chlorobenzoyl)-9-[3-(2-methoxyphenoxy)benzyl]-3,9-diazaspiro[5.5]undecane, reference compound]: the microsomal CLint at 2.5 μM in data set [2] was above 200 µL/min/mg.
On to `COc1ccccc1Oc1ccccc1CN1CCC2(CC1)CCN(C(=O)c1ccc(Cl)cc1CC(=O)O)CC2` [Example 5, [5-chloro-2-({9-[2-(2-methoxyphenoxy)benzyl]-3,9-diazaspiro[5.5]undec-3-yl}carbonyl)phenyl]acetic Acid], for which, in data set [1], the pIC50 was 7.77. In addition, the microsomal CLint at 2.5 μM in data set [2] is below 10 µL/min/mg.
The matching figures for `COc1ccccc1Oc1ccccc1CN1CCC2(CC1)CCN(C(=O)c1ccccc1CC(=O)O)CC2` [Example 4, [2-({9-[2-(2-methoxyphenoxy)benzyl]-3,9-diazaspiro[5.5]undec-3-yl}carbonyl)phenyl]acetic Acid]: 7.24 and below 10 µL/min/mg.
Regarding `O=C(O)Cc1cc(Cl)ccc1C(=O)N1CCC2(CCN(Cc3ccccc3Oc3ccccc3)CC2)CC1` [Example 2, (5-chloro-2-{[9-(2-phenoxybenzyl)-3,9-diazaspiro[5.5]undec-3-yl]carbonyl}phenyl)acetic Acid], the pIC50 in data set [1] was 6.71. Besides, in data set [2], the microsomal CLint at 2.5 μM was below 10 µL/min/mg.
`COc1ccccc1Oc1cccc(CN2CCC3(CC2)CCN(C(=O)c2ccccc2C(=O)O)CC3)c1` [Example 9, 2-({9-[3-(2-methoxyphenoxy)benzyl]-3,9-diazaspiro[5.5]undec-3-yl}carbonyl)benzoic Acid]: the pIC50 in data set [1] was 7.15. Further, the microsomal CLint at 2.5 μM in data set [2] is below 10 µL/min/mg.
With `O=C(O)Cc1ccccc1C(=O)N1CCC2(CCN(Cc3cccc(Oc4ccccc4)c3)CC2)CC1` [Example 3, (2-{[9-(3-phenoxybenzyl)-3,9-diazaspiro[5.5]undec-3-yl]carbonyl}phenyl)acetic Acid], the pIC50 in data set [1] is 6.84. Moreover, the microsomal CLint at 2.5 μM in data set [2] was below 10 µL/min/mg.
`COc1ccccc1Oc1ccccc1CN1CCC2(CC1)CCN(C(=O)c1cc(Cl)c(Cl)cc1C(=O)O)CC2` [Example 6, 4,5-dichloro-2-({9-[2-(2-methoxyphenoxy)benzyl]-3,9-diazaspiro[5.5]undec-3-yl}carbonyl)benzoic Acid]: in data set [1], the pIC50 is 7.09. Besides, the microsomal CLint at 2.5 μM in data set [2] came to 16 µL/min/mg.
For `CC(C)COc1ccccc1CN1CCC2(CC1)CCN(C(=O)c1ccccc1CC(=O)O)CC2` [A, (2-{[9-(2-isobutoxybenzyl)-3,9-diazaspiro[5.5]undec-3-yl]carbonyl}phenyl)acetic Acid, reference compound], the pIC50 in data set [1] was 5.97.
